Test results reported in patent US10709707B2, “Methods of treating ocular conditions” (Oyster Point Pharma, Inc., priority 2016, dated 2020).

Assays:
[1] = 7-day pilot intranasal toxicity and toxicokinetic study in rats; settings: for AUC(0-t): AUC0-t
Method: The study design was as follows:
The following parameters and end points were evaluated in this study; clinical signs, body weights, body weight gain, food consumption, ophthalmology, toxicokinetic parameters, gross necropsy findings, organ weights, and histopathologic examination of select tissues, including nasal cavity at levels I-IV and detailed ocular histopathology for all dose groups: histopathology for brain, pharynx, larynx, trachea, lung, and select target tissues (i.e., adrenal gland, liver, and spleen) that were identified in a GLP 13-week oral toxicity study in rats (DSE 2004-0356) in group 1 and 4 animals, and gross lesions.

[2] = system: subjects (intranasal administration); test: Panel of compounds administered intranasally: effect on tearing and discomfort response; settings: 50 microliters intranasally, three subjects, 0.01 mg/mL increased logarithmically up to 10 mg/mL
Method: A panel of twenty compounds with various receptor binding profiles, including other nicotinic acetylcholine receptor (nAchR) agonists were tested. At the onset of the experiment, 50 microliters of a 0.01 mg/mL compound formulation was administered intranasally to three subjects.

[3] = Male, Day 1, 3.6 mg/day (2%), intranasal TID
[4] = Male, Day 1, 10.8 mg/day (6%), intranasal TID
[5] = Male, Day 7, 0.9 mg/day (0.5%), intranasal TID
[6] = Male, Day 7, 3.6 mg/day (2%), intranasal TID
[7] = Male, Day 7, 10.8 mg/day (6%), intranasal TID
[8] = female, rat, plasma, inhaled or intranasal, 0.9 mg/day, Female, Day 1, 0.9 mg/day (0.5%), intranasal TID
[9] = female, rat, plasma, inhaled or intranasal, 0.9 mg/day, Female, Day 7, 0.9 mg/day (0.5%), intranasal TID
[10] = female, rat, plasma, inhaled or intranasal, 3.6 mg/day, Female, Day 1, 3.6 mg/day (2%), intranasal TID
[11] = female, rat, plasma, inhaled or intranasal, 3.6 mg/day, Female, Day 7, 3.6 mg/day (2%), intranasal TID
[12] = female, rat, plasma, inhaled or intranasal, 10.8 mg/day, Female, Day 1, 10.8 mg/day (6%), intranasal TID
[13] = female, rat, plasma, inhaled or intranasal, 10.8 mg/day, Female, Day 7, 10.8 mg/day (6%), intranasal TID
[14] = male, rat, plasma, inhaled or intranasal, 0.9 mg/day, Male, Day 1, 0.9 mg/day (0.5%), intranasal TID
[15] = male, rat, plasma, inhaled or intranasal, 0.9 mg/day, Male, Day 7, 0.9 mg/day (0.5%), intranasal TID
[16] = male, rat, plasma, inhaled or intranasal, 3.6 mg/day, Male, Day 1, 3.6 mg/day (2%), intranasal TID
[17] = male, rat, plasma, inhaled or intranasal, 3.6 mg/day, Male, Day 7, 3.6 mg/day (2%), intranasal TID
[18] = male, rat, plasma, inhaled or intranasal, 10.8 mg/day, Male, Day 1, 10.8 mg/day (6%), intranasal TID
[19] = male, rat, plasma, inhaled or intranasal, 10.8 mg/day, Male, Day 7, 10.8 mg/day (6%), intranasal TID

C(=C\[C@H]1CCNC1)/c1cncnc1 [Compound 1, (R)-5-((E)-2-pyrrolidin-3-ylvinyl)pyrimidine]
C2 (peak concentration following 2nd instillation) [1, 3]: 343 ng/mL
C3 (peak concentration following 3rd instillation) [1, 3]: 134 ng/mL
DN AUC0-t (dose-normalized) [1, 3]: 230 (ng*h/mL)/(mg)
C1 (peak concentration following 1st instillation) [1, 4]: 208 ng/mL
C2 (peak concentration following 2nd instillation) [1, 4]: 332 ng/mL
C3 (peak concentration following 3rd instillation) [1, 4]: 924 ng/mL
DN AUC0-t (dose-normalized) [1, 4]: 157 (ng*h/mL)/(mg)
C1 (peak concentration following 1st instillation) [1, 5]: 12.4 ng/mL
C2 (peak concentration following 2nd instillation) [1, 5]: 28.0 ng/mL
C3 (peak concentration following 3rd instillation) [1, 5]: 33.7 ng/mL
C1 (peak concentration following 1st instillation) [1, 6]: 110 ng/mL
C2 (peak concentration following 2nd instillation) [1, 6]: 53.8 ng/mL
C3 (peak concentration following 3rd instillation) [1, 6]: 25.5 ng/mL
DN AUC0-t (dose-normalized) [1, 6]: 82.7 (ng*h/mL)/(mg)
C1 (peak concentration following 1st instillation) [1, 7]: 166 ng/mL
C2 (peak concentration following 2nd instillation) [1, 7]: 209 ng/mL
C3 (peak concentration following 3rd instillation) [1, 7]: 225 ng/mL
DN AUC0-t (dose-normalized) [1, 7]: 81.3 (ng*h/mL)/(mg)
half-life ([1]; both, rat, plasma, inhaled or intranasal): 1.4 h
AUC(0-t) [1, 8]: 138 ng·h/mL
AUC(0-t) [1, 9]: 148 ng·h/mL
Cmax [1, 8]: 34.9 ng/mL
Cmax [1, 9]: 37.5 ng/mL
Tmax [1, 8]: 12.1 h
Tmax [1, 9]: 12.1 h
AUC(0-t) [1, 10]: 626 ng·h/mL
AUC(0-t) [1, 11]: 336 ng·h/mL
Cmax [1, 10]: 278 ng/mL
Cmax [1, 11]: 79.9 ng/mL
Tmax [1, 10]: 12.1 h
Tmax [1, 11]: 6.08 h
AUC(0-t) [1, 12]: 4170 ng·h/mL
AUC(0-t) [1, 13]: 1480 ng·h/mL
Cmax [1, 12]: 481 ng/mL
Cmax [1, 13]: 224 ng/mL
Tmax [1, 12]: 6.08 h
Tmax [1, 13]: 6.08 h
Cmax [1, 14]: 54.2 ng/mL
Cmax [1, 15]: 33.7 ng/mL
Tmax [1, 14]: 12.1 h
Tmax [1, 15]: 12.1 h
AUC(0-t) [1, 16]: 829 ng·h/mL
AUC(0-t) [1, 17]: 298 ng·h/mL
Cmax [1, 16]: 343 ng/mL
Cmax [1, 17]: 110 ng/mL
Tmax [1, 16]: 6.08 h
Tmax [1, 17]: 0.083 h
AUC(0-t) [1, 18]: 1700 ng·h/mL
AUC(0-t) [1, 19]: 878 ng·h/mL
Cmax [1, 18]: 924 ng/mL
Cmax [1, 19]: 225 ng/mL
Tmax [1, 18]: 12.1 h
Tmax [1, 19]: 12.1 h
time of peak systemic exposure after each instillation ([1]; rat, intranasal TID, post administration): 5 min
survival ([1]; rats, intranasal 0.5%, 2% and 6%, 3 times per day for 7 days): survival of all animals to scheduled euthanasia
no-observed-adverse-effect-level (NOAEL) ([1]; rats, intranasal 3 times per day for 7 days): 180 μL 6% Compound 1 per animal per day
Causes Tearing [2]: Yes
Discomfort Response [2]: No
